# Data published in patent US10010525B2, “Methods of inducing anesthesia” (The Regents of the University of California, priority 2012, dated 2018).
# Entries after “also recorded” stand apart in the source; their conditions may differ.
# Key:
# [1] = test system: 3-transmembrane (TM3) and 4-transmembrane (TM4) receptors; conditions: grouped by calculated molar solubility in unbuffered water at 25° C.; cited from earlier work
# [2] = target: T1, NMDA (NR1/NR2A) receptors (Rattus norvegicus, UniProt P35439+Q00959); assay: NMDA receptor two-electrode voltage clamp in oocytes at saturated drug concentration; assay type: cell-based; conditions: for NMDA % Direct Effect: drug response without receptor agonist; for NMDA % Direct Effect / NMDA % Agonist Effect: percent of control agonist peak, mean ±SEM, 5-6 oocytes, saturated drug; for NMDA % Agonist Effect: drug with glutamate and glycine; for NMDA Drug Response: drug+agonist versus control agonist peak; for NMDA receptor modulation (in words): saturating aqueous concentration
# T1 construct: expressed in transfected cells; host or cells: Xenopus laevis oocytes (RNA injection, 1:1)
# T1 sequence (Q00959 23-1464, other chains not shown): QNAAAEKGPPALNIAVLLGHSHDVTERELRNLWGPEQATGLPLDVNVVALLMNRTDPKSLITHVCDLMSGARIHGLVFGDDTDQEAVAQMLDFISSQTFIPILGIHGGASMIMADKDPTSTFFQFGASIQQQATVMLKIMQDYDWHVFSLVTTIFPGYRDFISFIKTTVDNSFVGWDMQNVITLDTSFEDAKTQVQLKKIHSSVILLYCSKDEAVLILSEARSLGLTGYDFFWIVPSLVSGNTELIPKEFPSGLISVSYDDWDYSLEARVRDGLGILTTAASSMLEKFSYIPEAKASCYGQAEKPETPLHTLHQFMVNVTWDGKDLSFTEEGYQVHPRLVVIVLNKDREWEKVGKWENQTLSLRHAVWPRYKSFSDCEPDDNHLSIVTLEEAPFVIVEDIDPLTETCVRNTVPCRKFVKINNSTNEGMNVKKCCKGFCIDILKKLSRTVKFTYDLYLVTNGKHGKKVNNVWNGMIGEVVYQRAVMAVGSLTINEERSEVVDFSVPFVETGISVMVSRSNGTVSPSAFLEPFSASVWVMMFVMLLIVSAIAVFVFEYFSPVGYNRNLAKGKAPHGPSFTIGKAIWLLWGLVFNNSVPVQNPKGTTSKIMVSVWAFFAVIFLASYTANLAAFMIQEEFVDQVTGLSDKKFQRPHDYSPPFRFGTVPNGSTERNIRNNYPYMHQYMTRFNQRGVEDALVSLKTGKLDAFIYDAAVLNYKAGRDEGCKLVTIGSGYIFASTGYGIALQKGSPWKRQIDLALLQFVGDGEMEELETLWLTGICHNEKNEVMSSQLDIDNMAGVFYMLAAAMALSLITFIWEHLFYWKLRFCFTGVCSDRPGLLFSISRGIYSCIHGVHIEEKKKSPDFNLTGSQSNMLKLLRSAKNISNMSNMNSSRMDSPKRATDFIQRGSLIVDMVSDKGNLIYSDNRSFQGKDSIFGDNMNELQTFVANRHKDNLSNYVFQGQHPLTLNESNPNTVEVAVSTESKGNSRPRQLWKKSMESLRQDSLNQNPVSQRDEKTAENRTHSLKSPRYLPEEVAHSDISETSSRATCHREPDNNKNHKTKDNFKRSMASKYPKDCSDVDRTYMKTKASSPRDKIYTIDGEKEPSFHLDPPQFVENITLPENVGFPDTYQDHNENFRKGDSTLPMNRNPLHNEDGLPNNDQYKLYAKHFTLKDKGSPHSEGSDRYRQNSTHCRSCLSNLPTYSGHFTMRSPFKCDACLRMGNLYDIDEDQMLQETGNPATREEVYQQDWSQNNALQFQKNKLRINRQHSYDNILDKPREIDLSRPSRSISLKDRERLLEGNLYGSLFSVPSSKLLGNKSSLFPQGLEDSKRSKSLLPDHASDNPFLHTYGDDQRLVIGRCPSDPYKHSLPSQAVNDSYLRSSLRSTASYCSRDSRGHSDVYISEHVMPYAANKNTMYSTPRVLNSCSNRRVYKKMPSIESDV
# Description: (§1) GABAA (α1β2γ2s) or NMDA (NR1/NR2A) receptors were expressed in oocytes and studied using standard two-electrode voltage clamp techniques. Hydrocarbons from 14 different organic functional groups were studied at saturated concentrations, and compounds within each group differed only by the carbon number at the ω-position or within a saturated ring. An effect on GABAA or NMDA receptors was defined as a 10% or greater reversible current change from baseline that was statistically different from zero.
# (§2) An ovary from tricaine-anesthetized Xenopus laevis frogs was surgically removed using a protocol approved by the Institutional Animal Care and Use Committee at the University of California, Davis. Following manual disruption of the ovarian lobule septae, the ovary was incubated in 0.2% Type I collagenase (Worthington Biochemical, Lakewood, N.J.) to defolliculate oocytes which were washed and stored in fresh and filtered modified Barth's solution composed of 88 mM NaCl, 1 mM KCl, 2.4 mM NaHCO3, 20 mM HEPES, 0.82 mM MgSO4, 0.33 mM Ca(NO3)2, 0.41 mM CaCl2, 5 mM sodium pyruvate, gentamycin, penicillin, streptomycin, and corrected to pH=7.4. All salts and antibiotics were A.C.S. grade (Fisher Scientific, Pittsburgh, Pa.).
# (§3) Clones used were provided as a gift from Dr. R. A. Harris (University of Texas, Austin) and were sequenced and compared to references in the National Center for Biotechnology Information database to confirm the identity of each gene. GABAA receptors were expressed using clones for the human GABAA α1 and the rat GABAA β2 and γ2s subunits in pCIS-II vectors. […] In separate oocytes, glutamate receptors were expressed using rat NMDA NR1 clones in a pCDNA3 vector and rat NMDA NR2A clones in a Bluescript vector. RNA encoding each subunit was prepared using a commercial transcription kit (T7 mMessage mMachine, Ambion, Austin, Tex.) was mixed in a 1:1 ratio, and 1-10 ng of total RNA was injected into oocytes and studied 1-2 days later.
# Briefly, baseline perfusion solutions were the same as for GABAA with the substitution of equimolar BaCl2 for calcium salts and the addition of 0.1 mM EGTA; this constituted barium frog Ringer's solution (BaFR). Agonist solutions for NMDA studies also contained 0.1 mM glutamate (E) and 0.01 mM glycine (G) to constitute a BaFREG solution.
# The syringe pump and perfusion chamber apparatus as well as the clamp holding potential and baseline-agonist exposure protocols were identical to that described for the GABAA studies. The same test compounds, concentrations, and preparative methods were used in NMDA voltage clamp studies as in the GABAA voltage clamp studies (Table 2).
# (§4) Modulating drug responses were calculated as the percent of the control (baseline) peak as follows: 100·ID/IB, where ID and IB were the peak currents measured during agonist+drug and agonist baseline perfusions, respectively. When present, direct receptor activation by a drug was similarly calculated as a percent of the agonist response. […] A lack of receptor response (cut-off) was defined as a<10% change from baseline current that was statistically indistinguishable from zero using a two-tailed Student t-test.
# [3] = target: T2, GABAA (α1β2γ2s) receptors (UniProt P14867+P18508+P63138); assay: GABAA receptor two-electrode voltage clamp in oocytes at saturated drug concentration; assay type: cell-based, human α1, rat β2 and γ2s; conditions: for GABAA % Direct Effect: drug response without receptor agonist; for GABAA % Direct Effect / GABAA % Agonist Effect: percent of control agonist peak, mean ±SEM, 5-6 oocytes, saturated drug; for GABAA % Agonist Effect: drug with γ-aminobutyric acid; for GABAA Drug Response: drug+agonist versus control agonist peak; for GABAA receptor modulation (in words): saturating aqueous concentration
# T2 construct: expressed in transfected cells; host or cells: Xenopus laevis oocytes (intranuclear plasmid injection, α1:β2:γ2 = 1:1:10)
# T2 sequence (P14867 28-456): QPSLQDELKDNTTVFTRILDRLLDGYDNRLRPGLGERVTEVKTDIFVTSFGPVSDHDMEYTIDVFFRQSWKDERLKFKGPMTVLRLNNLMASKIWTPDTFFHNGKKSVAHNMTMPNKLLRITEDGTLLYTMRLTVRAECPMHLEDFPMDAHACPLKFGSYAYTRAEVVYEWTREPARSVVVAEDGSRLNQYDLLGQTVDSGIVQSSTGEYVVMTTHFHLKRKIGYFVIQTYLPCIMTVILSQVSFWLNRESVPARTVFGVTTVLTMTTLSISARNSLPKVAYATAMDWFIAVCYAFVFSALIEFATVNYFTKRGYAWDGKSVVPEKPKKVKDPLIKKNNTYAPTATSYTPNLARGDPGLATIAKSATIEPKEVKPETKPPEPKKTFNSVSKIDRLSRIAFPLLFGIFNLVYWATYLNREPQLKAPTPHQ
# T2 sequence (P63138 25-474 limits assumed): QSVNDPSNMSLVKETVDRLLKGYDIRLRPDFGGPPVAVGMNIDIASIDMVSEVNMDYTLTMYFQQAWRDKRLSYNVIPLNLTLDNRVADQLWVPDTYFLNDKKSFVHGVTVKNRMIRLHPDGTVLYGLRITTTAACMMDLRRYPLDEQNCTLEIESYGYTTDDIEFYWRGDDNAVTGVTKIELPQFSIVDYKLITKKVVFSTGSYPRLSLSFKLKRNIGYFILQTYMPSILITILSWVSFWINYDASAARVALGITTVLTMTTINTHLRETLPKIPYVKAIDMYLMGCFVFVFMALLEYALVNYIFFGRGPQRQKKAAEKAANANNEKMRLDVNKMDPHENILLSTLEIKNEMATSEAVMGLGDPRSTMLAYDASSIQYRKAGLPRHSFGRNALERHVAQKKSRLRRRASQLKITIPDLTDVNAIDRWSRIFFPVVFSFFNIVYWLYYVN
# T2 sequence (P18508 39-466): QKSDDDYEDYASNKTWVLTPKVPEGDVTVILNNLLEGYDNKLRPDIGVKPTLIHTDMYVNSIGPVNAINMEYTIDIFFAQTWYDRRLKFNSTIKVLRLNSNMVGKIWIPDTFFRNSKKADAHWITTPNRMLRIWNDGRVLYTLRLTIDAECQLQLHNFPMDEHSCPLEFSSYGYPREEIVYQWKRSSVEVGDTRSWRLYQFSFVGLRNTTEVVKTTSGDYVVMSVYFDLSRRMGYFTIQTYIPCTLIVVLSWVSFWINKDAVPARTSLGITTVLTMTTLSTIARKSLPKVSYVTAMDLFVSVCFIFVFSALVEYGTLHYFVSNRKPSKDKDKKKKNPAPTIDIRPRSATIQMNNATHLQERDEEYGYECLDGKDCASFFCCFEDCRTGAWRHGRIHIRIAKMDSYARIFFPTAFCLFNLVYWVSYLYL
# Description: as §1, §2, §3
# Oocytes were studied in a 250 μL linear-flow perfusion chamber with solutions administered by syringe pump at 1.5 ml/min with gastight glass syringes and Teflon tubing. Oocyte GABAA currents were studied using standard two-electrode voltage clamping techniques at a holding potential of […] using a 250 μL channel linear-flow perfusion chamber with solutions administered by syringe pump at 1.5 mL/min.
# After FR perfusion for 5 min, oocytes were exposed to 30 sec FR-GABA followed by another 5 min FR washout; this was repeated until stable GABAA-elicited peaks were obtained. Next, FR containing a saturated solution of the study drug (Table 2)—or for gaseous study compounds a vapor pressure equal to 90% of barometric pressure with balance oxygen—was used to perfuse the oocyte chamber for 2 min followed by perfusion with a FR-GABA solution containing the identical drug concentration for 30 sec.
# as §4
smiles,measurement,setting,value
"FC1(F)C(F)(F)C(F)(Cl)C1(F)Cl (stereo not drawn) [1,2-dichlorohexafluorocyclobutane]","ion channel modulation, TM3 versus TM4 receptors (FIG. 2)",[1],modulate 4-transmembrane receptors (TM4) or neither receptor type
CCCCCCCCC(C)=O [2-decanone],NMDA % Direct Effect,[2],none
same,NMDA % Agonist Effect,[2],81 ± 1%
same,GABAA % Direct Effect,[3],none
same,GABAA % Agonist Effect,[3],476 ± 52%
same,GABAA Drug Response,[3],+ (potentiation (+) for drug+agonist responses greater than the control agonist peak)
CCCCCCCCCCC(C)=O [2-dodecanone],NMDA % Direct Effect,[2],none
same,NMDA % Agonist Effect,[2],97 ± 3%
same,NMDA Drug Response,[2],0 (no response (0) for drug+agonist responses that differ by <10% from the control agonist peak)
same,GABAA % Direct Effect,[3],none
same,GABAA % Agonist Effect,[3],325 ± 30%
same,GABAA Drug Response,[3],+ (potentiation (+) for drug+agonist responses greater than the control agonist peak)
CCCCCCCCCC(C)=O [2-undecanone],NMDA % Direct Effect,[2],none
same,NMDA % Agonist Effect,[2],98 ± 2%
same,NMDA Drug Response,[2],0 (no response (0) for drug+agonist responses that differ by <10% from the control agonist peak)
same,GABAA % Direct Effect,[3],none
same,GABAA % Agonist Effect,[3],230 ± 16%
same,GABAA Drug Response,[3],+ (potentiation (+) for drug+agonist responses greater than the control agonist peak)
CCCC [butane],NMDA % Direct Effect,[2],none
same,NMDA % Agonist Effect,[2],7 ± 2%
same,NMDA receptor modulation (in words),[2],negatively modulates
same,NMDA receptor modulation (in words),[2]; listed as n-butane,almost completely inhibited NMDA receptor currents
same,GABAA % Direct Effect,[3],none
same,GABAA % Agonist Effect,[3],623 ± 68%
same,GABAA Drug Response,[3],+ (potentiation (+) for drug+agonist responses greater than the control agonist peak)
same,GABAA receptor modulation (in words),[3],positively modulate
C1CCCCC1 [cyclohexane],NMDA % Direct Effect,[2],none
same,NMDA % Agonist Effect,[2],101 ± 2%
same,NMDA Drug Response,[2],0 (no response (0) for drug+agonist responses that differ by <10% from the control agonist peak)
same,GABAA % Direct Effect,[3],none
same,GABAA % Agonist Effect,[3],421 ± 17%
same,GABAA Drug Response,[3],+ (potentiation (+) for drug+agonist responses greater than the control agonist peak)
C1CCCC1 [cyclopentane],NMDA % Direct Effect,[2],none
same,NMDA % Agonist Effect,[2],83 ± 2%
same,GABAA % Direct Effect,[3],3 ± 2%
same,GABAA % Agonist Effect,[3],196 ± 11%
same,GABAA Drug Response,[3],+ (potentiation (+) for drug+agonist responses greater than the control agonist peak)
C1CC1 [cyclopropane],"ion channel modulation, TM3 versus TM4 receptors (FIG. 2)",[1],modulate both 3-transmembrane (TM3) and TM4 receptors
CCCCCCCCCC=O [decanal],NMDA % Direct Effect,[2],none
same,NMDA % Agonist Effect,[2],97 ± 3%
same,NMDA Drug Response,[2],0 (no response (0) for drug+agonist responses that differ by <10% from the control agonist peak)
same,GABAA % Direct Effect,[3],none
same,GABAA % Agonist Effect,[3],159 ± 5%
same,GABAA Drug Response,[3],+ (potentiation (+) for drug+agonist responses greater than the control agonist peak)
FC(F)OC(F)C(F)(F)F (stereo not drawn) [desflurane],"ion channel modulation, TM3 versus TM4 receptors (FIG. 2)",[1],modulate both 3-transmembrane (TM3) and TM4 receptors
CN1C(=O)CN=C(c2ccccc2)c2cc(Cl)ccc21 [diazepam],"ion channel modulation, TM3 versus TM4 receptors (FIG. 2)",[1],modulate 4-transmembrane receptors (TM4) or neither receptor type
CCCCCCOCCCCCC [dihexylether],NMDA % Direct Effect,[2],none
same,NMDA % Agonist Effect,[2],112 ± 4%
same,NMDA Drug Response,[2],0 (no response (0) for drug+agonist responses that differ by <10% from the control agonist peak)
same,GABAA % Direct Effect,[3],none
same,GABAA % Agonist Effect,[3],113 ± 1%
same,GABAA Drug Response,[3],+ (potentiation (+) for drug+agonist responses greater than the control agonist peak)
CCCCCOCCCCC [dipentylether],NMDA % Direct Effect,[2],none
same,NMDA % Agonist Effect,[2],97 ± 2%
same,NMDA Drug Response,[2],0 (no response (0) for drug+agonist responses that differ by <10% from the control agonist peak)
same,GABAA % Direct Effect,[3],none
same,GABAA % Agonist Effect,[3],211 ± 9%
same,GABAA Drug Response,[3],+ (potentiation (+) for drug+agonist responses greater than the control agonist peak)
CCCCCCCCCC(=O)OCC [ethyl decanoate],NMDA % Direct Effect,[2],none
same,NMDA % Agonist Effect,[2],98 ± 1%
same,NMDA Drug Response,[2],0 (no response (0) for drug+agonist responses that differ by <10% from the control agonist peak)
same,GABAA % Direct Effect,[3],none
same,GABAA % Agonist Effect,[3],137 ± 2%
same,GABAA Drug Response,[3],+ (potentiation (+) for drug+agonist responses greater than the control agonist peak)
CCCCCCC(=O)OCC [ethyl heptanoate],NMDA % Direct Effect,[2],none
same,NMDA % Agonist Effect,[2],78 ± 3%
same,GABAA % Direct Effect,[3],none
same,GABAA % Agonist Effect,[3],370 ± 34%
same,GABAA Drug Response,[3],+ (potentiation (+) for drug+agonist responses greater than the control agonist peak)
CCCCCCCC(=O)OCC [ethyl octanoate],NMDA % Direct Effect,[2],none
same,NMDA % Agonist Effect,[2],90 ± 1%
same,GABAA % Direct Effect,[3],none
same,GABAA % Agonist Effect,[3],285 ± 18%
same,GABAA Drug Response,[3],+ (potentiation (+) for drug+agonist responses greater than the control agonist peak)
CCCCCC [hexane],NMDA % Direct Effect,[2],none
same,NMDA % Agonist Effect,[2],100 ± 1%
same,NMDA Drug Response,[2],0 (no response (0) for drug+agonist responses that differ by <10% from the control agonist peak)
same,GABAA % Direct Effect,[3],none
same,GABAA % Agonist Effect,[3],129 ± 5%
same,GABAA Drug Response,[3],+ (potentiation (+) for drug+agonist responses greater than the control agonist peak)
CCCCCCCCC=O [nonanal],NMDA % Direct Effect,[2],none
same,NMDA % Agonist Effect,[2],104 ± 2%
same,NMDA Drug Response,[2],0 (no response (0) for drug+agonist responses that differ by <10% from the control agonist peak)
same,GABAA % Direct Effect,[3],none
same,GABAA % Agonist Effect,[3],219 ± 29%
same,GABAA Drug Response,[3],+ (potentiation (+) for drug+agonist responses greater than the control agonist peak)
CCCCCCCC=O [octanal],NMDA % Direct Effect,[2],none
same,NMDA % Agonist Effect,[2],71 ± 3%
same,GABAA % Direct Effect,[3],6 ± 3%
same,GABAA % Agonist Effect,[3],357 ± 20%
same,GABAA Drug Response,[3],+ (potentiation (+) for drug+agonist responses greater than the control agonist peak)
CCCCC [pentane],NMDA % Direct Effect,[2],none
same,NMDA % Agonist Effect,[2],94 ± 3%
same,NMDA Drug Response,[2],0 (no response (0) for drug+agonist responses that differ by <10% from the control agonist peak)
same,NMDA receptor modulation (in words),[2],does not modulate NMDA receptors; also recorded: no effect
same,GABAA % Direct Effect,[3],none
same,GABAA % Agonist Effect,[3],321 ± 10%
same,GABAA Drug Response,[3],+ (potentiation (+) for drug+agonist responses greater than the control agonist peak)
same,GABAA receptor modulation (in words),[3],positively modulate
CCCCCCCCCCC=O [undecanal],NMDA % Direct Effect,[2],none
same,NMDA % Agonist Effect,[2],97 ± 8%
same,NMDA Drug Response,[2],0 (no response (0) for drug+agonist responses that differ by <10% from the control agonist peak)
same,GABAA % Direct Effect,[3],none
same,GABAA % Agonist Effect,[3],299 ± 29%
same,GABAA Drug Response,[3],+ (potentiation (+) for drug+agonist responses greater than the control agonist peak)
